Results from patent publication US20090023186A1, “USE OF VALPROIC ACID FOR ENHANCING PRODUCTION OF RECOMBINANT PROTEINS IN MAMMALIAN CELLS” (EXCELLGENE SA, priority 2007, published 2009).

Assays:
HEK293E cells [1] = test: Stable cell lines, IgG batch titer by ELISA (Example 5); type: cell-based, Human; conditions: 4 mmol/l final VPA; stable mass culture; 5 days after VPA addition
Description: 20 million suspension-adapted HEK293E cells were resuspended in 1 ml of Ex-Cell 293 HEK 293 serum-free medium with 4 mmol/l L-glutamine (Cat. No. 14571C-1000M; Lot No. 6A0093; SAFC Biosciences, Lenexa, Kans., USA, “Ex-Cell” medium; note: “Ex-Cell” medium-as used herein-refers to a medium comprising 4 mmol/l L-glutamine) in a 50-ml filter tube each (TPP AG, Trasadingen, Switzerland; Cat. No. 87050, Lot 20050174). Then 50 μg plasmid DNA at a concentration of 1 μg/μl was added in each tube with the following composition 5% (2.5 μg) p-LC (SEQ ID NO: 1) 5% (2.5 μg) p-HC (SEQ ID NO: 3) 90% (45 μg) p-puro (SEQ ID NO: 13). Plasmid p-LC comprises the genetic information for the production of the light chain of an IgG antibody, plasmid p-HC comprises the genetic information for the production of the heavy chain of an IgG antibody, plasmid p-puro comprises the genetic information for the enzyme puromycin-N-acetyl-transferase, which is encoded by the pac gene, the puromycin resistance gene. […] In short, Goat anti-human kappa light chain IgG (Biosource) was used for coating the ELISA-plates, and with AP-conjugated goat anti-human gamma chain IgG (Biosource) the synthesized IgG1 was detected. […] Absorption was measured at 405 nm against 490 nm using a microplate reader (SPECTRAmaxTM340; Molecular Devices, Palo Alto, Calif., USA).

HEK293E cells [2] = test: Preferred embodiment: transient IgG expression with p18 and p21 co-transfection, batch titer by ELISA; type: cell-based, Human; conditions: day 14 after transfection
Description: 20 million suspension-adapted HEK293E cells were resuspended in 1 ml of Ex-Cell 293 HEK 293 serum-free medium with 4 mmol/l L-glutamine (Cat. No. 14571C-[…]; Lot No. 6A0093; SAFC Biosciences, Lenexa, Kans., USA, “Ex-Cell” medium; note: “Ex-Cell” medium-as used herein-refers to a medium comprising 4 mmol/l L-glutamine) in a 50-ml filter tube each (TPP AG, Trasadingen, Switzerland; Cat. No. 87050, Lot 20050174). Then 50 μg plasmid DNA at a concentration of 1 μg/μl was added in each tube with the following composition […] Plasmid p-LC comprises the genetic information for the production of the light chain of an IgG antibody, plasmid p-HC comprises the genetic information for the production of the heavy chain of an IgG antibody, plasmid p-p18 comprises the genetic information for the protein p18, and plasmid p-p21 comprises the genetic information for the protein p21. The particular vector constructs used in the present invention can also be obtained from the inventors. The inventors can be contacted via e-mail at […]. Moreover, commercial services do exist that produce any desired nucleotide sequence even comprising several kilobase pairs including complete expression cassettes in plasmid backgrounds (e.g., Invitrogen, Carlsbad, USA; Geneart, Germany.) Thus, providing the genetic sequence information of the plasmids should enable one of ordinary skill in the art to order the plasmids of the present invention at one of the commercial services listed. After shortly mixing the DNA with the cells by gentle shaking, 100 μg of 25-kd linear polyethyleneimine (“PEI”; Polysciences, Eppelheim, Germany; [2]) were added at a concentration of 1 μg/μl to each of the tubes. After shortly mixing by gentle shaking, the filter tubes containing the cells together with the DNA and PEI were transferred into an orbital shaker (Kühner Shaker Cabinet ISF-4-W, “Kühner shaker”, Kühner AG, Birsfelden, Switzerland), and the cells were incubated for 3 hours at 37° C. in a 5% CO2 atmosphere under shaking at 180 rpm. After that time, 4 ml of Ex-Cell medium were added to each of the filter tubes. […] No. B5887-1G; Sigma-Aldrich Chemie GmbH, Industriestrasse 25, CH-9471 Buchs SG) was added to the corresponding tubes at the corresponding final concentrations. […] The ELISA was performed as published in prior art. In short, Goat anti-human kappa light chain IgG (Biosource) was used for coating the ELISA-plates, and with AP-conjugated goat anti-human gamma chain IgG (Biosource) the synthesized IgG1 was detected. NPP was used as a substrate for the alkaline phosphatase. Absorption was measured at 405 nm against 490 nm using a microplate reader (SPECTRAmaxTM340; Molecular Devices, Palo Alto, Calif., USA).

CCCC(CCC)C(=O)O [VPA, valproic acid]
Batch titer HEK293E (HEK293E cells [1]): 47.8 ± 4.8 mg/L | Batch titer (HEK293E cells [2]; 3.8 mmol/l VPA, IgG with p18 and p21): 962 ± 73 mg/L | Fold increase over control (HEK293E cells [2]; 3.8 mmol/l VPA): 13.2 fold | batch titers compared to adding sodium butyrate (HEK293E cells [2]): higher
